Structure (SMILES) | melting point
CC(C)(C)NCC(COc1cccc2c1CC(=O)N2)OC(=O)C=Cc1ccccc1 (configuration not stated) | 128 to 132 °C
COC(=O)Cc1cc2ccc(OC)cc2n(Cc2ccccc2)c1=O | 118 to 120 °C
Nc1nc(-c2ccco2)c(N2CCOCC2)s1 | 285 to 288 °C
O=C(CO)Nc1nc2c(Cl)cccc2s1 | 242 to 245 °C
COP(=O)(Cc1c(C)ccc2ccccc12)OC | 54 to 57 °C
Cc1cccc(C(=O)c2ccc(Cl)cc2)c1 | 108 °C
CCCc1nc2c(N)nc3cc(Oc4ccccc4C#N)ccc3c2n1CC(C)C | 230 to 232 °C
CC(C)(C)OC(=O)Nc1ccc(-c2ccco2)cc1[N+](=O)[O-] | 169 to 172 °C
O=C1C2CC(c3ccc([N+](=O)[O-])cc3)(C2)C(=O)N1C1CCCCC1 | 163 to 164 °C
N#Cc1ccc(Oc2ccc(N)c(CN)c2)cc1 | 80 to 82 °C
Cc1ccc(CNc2ccc(Cl)cc2Cl)c(C)c1 | 88 to 90 °C
CCCCCCCCCC(=O)Nc1ccc(S(=O)(=O)Nc2nnc(S(N)(=O)=O)s2)cc1 | 242 to 243 °C
CC(=O)C[C@H]1CC[C@H](c2ccc(Cl)cc2)CC1 | 58 to 60 °C
COCc1ccc2cccnc2c1Cl | 78 to 79 °C
CC(C)c1ccc(N2COCN(C)C2=O)cc1F | 45 °C
Cc1nc(-c2cnn(-c3c(Cl)cc(C(F)(F)F)cc3Cl)n2)[nH]c1[N+](=O)[O-] | 231 to 232 °C
O=C(/C=C/c1ccc(Br)cc1)Nc1ccccc1C(=O)O | 215 to 216 °C
CCNc1ccc(S(=O)(=O)Nc2onc(C)c2C)cc1 | 123 °C
CCn1c(=O)sc2cc(C(O)c3ccc([N+](=O)[O-])cc3)ccc21 (configuration not stated) | 160 to 162 °C
CC(C)c1cccc(S(=O)(=O)n2c(CCCC(=O)O)cc3nc(Cl)ccc32)c1 | 119 °C
CC1(C)NC(=O)N(c2cc(C#N)c(C#N)c(C(F)(F)F)c2)C1=O | 159 to 160 °C
COc1cccc(C(=O)N2CCCC(=O)c3ccc(Cl)cc3CCC2=O)c1 | 105 to 106 °C
Cc1cc2c(-c3ccccc3Cl)c(NC(=O)Nc3cccc(Cl)c3)c(=O)n(C)c2cc1C | 208 to 210 °C
CC(C)Sc1c(C(=O)O)sc2cccc(Cl)c12 | 107 to 109 °C
Nc1ccccc1Nc1ccccc1F | 82 to 83 °C
CCOC(=O)c1cn(NCC=O)c2c(F)c(F)c(F)cc2c1=O | 185 °C

Structure (SMILES) | melting point
Cc1ccc2c(c1)CC(=O)c1cc(F)ccc1S2 | 103 to 104 °C
ONCc1ccc(N2CCC3(CC2)OCCO3)cc1 | 107 to 109 °C
CCN(C(=O)N(C)C)c1nnc(S(=O)(=O)N(C)C)s1 | 75 to 77 °C
O=C(O)c1cc2c(s1)S(=O)(=O)CC2 | 227 to 230 °C
CC(=O)Nc1ccc(SC(F)(F)C(F)F)cc1 | 134 to 135 °C
CCCCc1noc(-c2ccc(C(=O)NCCC(C)(C)C)cc2)n1 | 95 to 97 °C
O=c1cc2c(nn1Cc1ccc(Cl)cc1)-c1ccccc1S(=O)(=O)CC2 | 238 to 239 °C
Cc1cccc(C(=O)Nc2c[nH]nc2C(=O)NCC(C)(C)C#N)n1 | 250 to 251 °C
OC(c1ccccc1)c1ccc2[nH]nnc2c1 (configuration not stated) | 143 °C
Cc1cc2c(-c3ccccc3)c(NC(=O)NCc3ccccc3N)n(C)c(=O)c2cc1C | 218 °C
CCC(=O)NS(=O)(=O)c1cccc(-c2cc(-c3nc(-c4ccc(C(F)(F)F)cc4)cc(C(F)(F)F)n3)ccn2)c1 | 144 °C
COC(=O)C1=NC2=COc3cc(C)c(Cl)cc3N2C1C(=O)O (configuration not stated) | 240 to 244 °C
CCn1c(=O)c2[nH]c(/C=C/c3cccc(Oc4ccccc4)c3)nc2n(CC)c1=O | 241 to 243 °C
O=C1NCCCCC1c1cccc(OCc2ccccc2)c1 (configuration not stated) | 119 to 122 °C
CCOC(=O)NC1CCN(Cc2ccccc2)CC1 | 100 °C
C=C(CC(=O)O)c1ccc(-c2ccc(F)cc2F)cc1 | 109 to 110 °C
CCCCN(CCCC)c1ccc(C=Cc2ccc(C(C#N)=C(C#N)C#N)s2)c(OC)c1 | 189 to 192 °C
CNS(=O)(=O)c1cccc(-c2ccc3cccc(N4CCN(C)CC4)c3c2)c1 | 148 °C
COc1ccc(NC(=O)C2C(=O)N(C)C(=S)N(C)C2=O)cc1Oc1ccc(C(F)(F)F)cc1Cl | 165 to 168 °C
Cc1cccc(CCOc2ccc([N+](=O)[O-])cc2)n1 | 61 to 62 °C
CCOC(=O)C1=C(C)NC(C(OCC)OCC)=C(C(=O)OCC)C1c1cccc(O)c1 (configuration not stated) | 107 to 108 °C
O=C(O)CCCOc1ccc(CCNC(=O)C2Cc3ccccc3N2S(=O)(=O)c2ccc(-c3cccc(C(F)(F)F)c3)cc2)cc1 (configuration not stated) | 70 °C
Cc1cc(=O)c(Oc2ccc(F)cc2F)c(-c2ccc(S(C)(=O)=O)cc2)o1 | 191 °C
Cc1oc(-c2ccccc2)nc1CCOc1ccc(CCCCCC2OC(=O)NC2=O)cc1 (configuration not stated) | 157 to 158 °C
Cc1c(C(=O)O)ccc(S(C)(=O)=O)c1C1=NOCC1 | 182 to 184 °C
CCc1nc(OC)c(NC(=O)N2CCN(c3cccc(F)c3)CC2)cc1C(=O)Nc1cc(CO)cc(Nc2c3ccccc3nc3ccccc23)c1 | 186 to 188 °C

Structure (SMILES) | melting point
OC(CCc1cccnc1)CSc1ccc(-c2ccccc2)cc1 (configuration not stated) | 128 to 130 °C
NC(=O)c1cc2c(Oc3ccc(Cl)cc3)cncc2s1 | 176 to 177 °C
COC1(c2cc(F)cc(Sc3ccc(NC(C)=O)cc3)c2)CCN(CC(F)(F)F)C1 (configuration not stated) | 127 to 129 °C
CCCCc1nc2cc(Cl)c(Cl)cc2n1Cc1ccc(C(=O)O)cc1 | 244 to 246 °C
CCc1nc2ccc(Cl)nc2n1Cc1ccc2oc(-c3ccccc3-c3nnn[nH]3)c(Br)c2c1 | 162 to 165 °C
c1ccc2c(c1)NCS2 | 60 to 62 °C
CCOC(=O)c1cn(-c2cc3ccccc3cn2)cn1 | 161 to 162 °C
O=C1CCC(c2ccccc2)(c2ccccc2)C2CN(C(Cc3ccccc3)=NCc3ccccc3F)CC12 (configuration not stated) | 160 °C
Fc1cccc(F)c1-c1cnc(-c2ccc(Br)cc2)nn1 | 167 to 169 °C
Cc1oc(-c2ccc(F)cc2)nc1COc1cccc(CN(O)C(N)=O)c1 | 156 to 157 °C
O=C(c1n[nH]c2ccccc12)N1CCCCC1 | 201 to 203 °C
CCOC(=O)c1ccc(OC(F)F)cc1S(=O)(=O)NC(=O)Nc1nc(OC)cc(OC)n1 | 146 to 149 °C
C=COCCN1C(=O)CN(C)C1=O | 54 to 56 °C
CS(=O)(=O)c1ccc(Cl)c(C(=O)Nc2ccc(-n3nc(C4CC4)cc3C3CC3)cc2)c1 | 60 to 65 °C
O=C(O)C1CSC(C2CCCCC2)N1 (mixture of isomers) | 248 °C
Cc1ccnc(Cl)c1C#N | 109 to 110 °C
COc1ccc(CON(Cc2ccccc2)S(C)(=O)=O)cc1 | 85 to 87 °C
Cc1ccc(NC(=O)c2c(Cl)cccc2Cl)c2nccc(-n3ccnc3)c12 | 236 °C
Cc1nc2nn(-c3ccccc3)c(N)c2c(=O)[nH]1 | 279 to 281 °C
CCCc1ccc(C2c3c(C)c(N)c(C)c(C)c3OC2(C)C)cc1 (configuration not stated) | 68 to 69 °C
Cc1ncc(CNC(=O)c2nc3n(c(=O)c2O)CCOC3(C)C)s1 | 245 °C
COC(=O)CC[C@H](NC(=O)c1ccc(NCC(=O)OCc2ccccc2)cc1)C(=O)OC | 82 °C
COc1ccc(-c2cc(=O)c3c(O)cc(OCC4=COC(C)(C)O4)cc3o2)cc1OC | 166 °C
CCOCCNC(=O)Oc1cccc(NC(=O)C=C(C)OC)c1 | 133 to 134 °C
Cc1cc(-n2ccnc2)c2cccc(OCc3c(Cl)ccc(S(=O)(=O)N4CCC[C@H]4C(=O)NCC4CCN(CCC(=O)O)CC4)c3Cl)c2n1 | 140 °C
Cc1ccc(S(=O)(=O)OCC2COc3ccc([N+](=O)[O-])c(CC=O)c3O2)cc1 (configuration not stated) | 116 to 120 °C

Structure (SMILES) | melting point
Nc1cc(C(=O)O)cc(SCc2ccccc2)c1-c1ccccc1 | 173 to 174 °C
CCN(CC)CCOC(=O)c1ccc2nc3n(c(=O)c2c1)C(C)CC3=Cc1ccccc1 (configuration not stated) | 125 to 130 °C
CC(C)(C)c1cc(CCc2ccccc2NC(=O)NCCCCc2ccccc2)cc(C(C)(C)C)c1O | 157 °C
C=C1SC(=O)N(c2ccc3cc(-c4ccc(O)c(C(C)(C)C)c4)ccc3c2)C1=O | 276 to 278 °C
Cc1nnc(C=Cc2ccccc2O)s1 | 253 to 254 °C
NC(=O)N1CC(Oc2ccc(Cl)cc2)C1 | 187 to 188 °C
COc1cc(C(C)=O)ccc1OCCCCN1CCN(c2n[nH]c3cc(F)ccc23)CC1 | 156 to 158 °C
Cc1[nH]c(=O)sc1C(=O)c1ccc(F)cc1 | 209 to 210 °C
CCCn1c(COCC)nc2c(N)nc3ccc(OC4CCN(S(C)(=O)=O)CC4)cc3c21 | 240 to 244 °C
CC(CO)(CO)NS(=O)(=O)c1cc([N+](=O)[O-])c(Cl)s1 | 133 °C
O=C(Cc1ccc(SC(F)(F)F)cc1)NCc1ccc2c(c1)CN(C1CCC(=O)NC1=O)C2=O (configuration not stated) | 208 to 210 °C
O=C(O)c1ccc2c(c1)Sc1ccc([N+](=O)[O-])cc1C=C2 | 304 to 306 °C
Cc1ccc(-c2ccc3c(c2)C=C(C(=O)N2CCC(N)CC2)CCO3)cc1 | 123 to 127 °C
O=C(Nc1ccccc1)Nc1ccc2ccc(Cl)nc2n1 | 276 °C
C=C(C)C#Cc1cccc2c1C(=O)OC(C)(C)O2 | 60 °C
FC(F)(F)c1ccc(-c2cc(C(F)(F)F)n3cnc(I)c3n2)cc1 | 141 °C
CCOC(=O)COC1CC(C)(C)N(O)C(C)(C)C1 | 41 to 43 °C
OCc1cn(-c2c(Cl)cc(C(F)(F)F)cc2Cl)nn1 | 123 to 125 °C
CNC(=O)N1CCC(Oc2ccc([N+](=O)[O-])cc2)(c2ccccc2)CC1 | 110 to 115 °C
COc1cccc2[nH]c(=O)n3c(=O)[nH]nc3c12 | > 350 °C
CCC(Cc1ccc(OC)c(CC(=O)Nc2ccc(C(F)(F)F)cc2)c1)C(=O)O (configuration not stated) | 136 to 137 °C
COc1ccc(C2CC(=O)N(C)C2)cc1OC (configuration not stated) | 69 °C
CNC(=O)c1cnc2ccccc2c1-c1ccccn1 | 171 to 172 °C
O=S1(=O)N=CN(C2CC2)c2cccc(F)c21 | 156 to 157 °C

Source: a melting point compilation (Tetko et al.; mined from patent text by program, amines drawn as free bases though some values may be those of a salt)
